Assay results: patent US12624044B2, “SMARCA degraders and uses thereof” (Kymera Therapeutics, Inc., priority 2019, dated 2026)

How the values were obtained:
SMARCA2 = SMARCA2 (Homo sapiens, UniProt P51531); assay: MSD SMARCA2 degradation in A549 cell line; assay type: cell-based; details: 24 h; for Dmax: A549, A549 cells; for DC50: A549 cells, read-out: SMARCA2 MSD A549 degradation 24 h: Average external-Abs DC50
Outline: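 SMARCA2 remaining was measured by MSD electrochemiluminescence on RIPA lysates (anti-SMARCA2 plus SULFO-TAG anti-rabbit). Prior exposure: 24 h of A549 cells to a 10-point, 3-fold dilution series topping at 1000 nM final; Dmax % given as graded codes.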

SMARCA4 = target: T1, SMARCA4 (Homo sapiens, UniProt P51532); assay: SMARCA4 Western blot MV4-11 degradation; assay type: cell-based; details: 24 h; for Dmax: MV4-11, MV4-11 cells, read-out: SMARCA4 WB MV411 degradation 24 h: Average Dmax %; for DC50: MV4-11 cells, read-out: SMARCA4 WB MV411 degradation 24 h: Average external-Abs DC50
T1 construct: SMARCA2 and SMARCA4 protein degradation in MV4-11 cells; endogenous in cells; host or cells: MV4-11
Outline: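 MV4-11 cells treated with compound for 24 h, lysed in RIPA with protease/phosphatase inhibitors, and SMARCA2 and SMARCA4 (BRG1) levels assessed by Western blot with β-actin loading control and LI-COR fluorescent read-out. Maximal degradation (Dmax %) after 24 h binned into letter codes.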

T1 sequence (P51532 whole entry): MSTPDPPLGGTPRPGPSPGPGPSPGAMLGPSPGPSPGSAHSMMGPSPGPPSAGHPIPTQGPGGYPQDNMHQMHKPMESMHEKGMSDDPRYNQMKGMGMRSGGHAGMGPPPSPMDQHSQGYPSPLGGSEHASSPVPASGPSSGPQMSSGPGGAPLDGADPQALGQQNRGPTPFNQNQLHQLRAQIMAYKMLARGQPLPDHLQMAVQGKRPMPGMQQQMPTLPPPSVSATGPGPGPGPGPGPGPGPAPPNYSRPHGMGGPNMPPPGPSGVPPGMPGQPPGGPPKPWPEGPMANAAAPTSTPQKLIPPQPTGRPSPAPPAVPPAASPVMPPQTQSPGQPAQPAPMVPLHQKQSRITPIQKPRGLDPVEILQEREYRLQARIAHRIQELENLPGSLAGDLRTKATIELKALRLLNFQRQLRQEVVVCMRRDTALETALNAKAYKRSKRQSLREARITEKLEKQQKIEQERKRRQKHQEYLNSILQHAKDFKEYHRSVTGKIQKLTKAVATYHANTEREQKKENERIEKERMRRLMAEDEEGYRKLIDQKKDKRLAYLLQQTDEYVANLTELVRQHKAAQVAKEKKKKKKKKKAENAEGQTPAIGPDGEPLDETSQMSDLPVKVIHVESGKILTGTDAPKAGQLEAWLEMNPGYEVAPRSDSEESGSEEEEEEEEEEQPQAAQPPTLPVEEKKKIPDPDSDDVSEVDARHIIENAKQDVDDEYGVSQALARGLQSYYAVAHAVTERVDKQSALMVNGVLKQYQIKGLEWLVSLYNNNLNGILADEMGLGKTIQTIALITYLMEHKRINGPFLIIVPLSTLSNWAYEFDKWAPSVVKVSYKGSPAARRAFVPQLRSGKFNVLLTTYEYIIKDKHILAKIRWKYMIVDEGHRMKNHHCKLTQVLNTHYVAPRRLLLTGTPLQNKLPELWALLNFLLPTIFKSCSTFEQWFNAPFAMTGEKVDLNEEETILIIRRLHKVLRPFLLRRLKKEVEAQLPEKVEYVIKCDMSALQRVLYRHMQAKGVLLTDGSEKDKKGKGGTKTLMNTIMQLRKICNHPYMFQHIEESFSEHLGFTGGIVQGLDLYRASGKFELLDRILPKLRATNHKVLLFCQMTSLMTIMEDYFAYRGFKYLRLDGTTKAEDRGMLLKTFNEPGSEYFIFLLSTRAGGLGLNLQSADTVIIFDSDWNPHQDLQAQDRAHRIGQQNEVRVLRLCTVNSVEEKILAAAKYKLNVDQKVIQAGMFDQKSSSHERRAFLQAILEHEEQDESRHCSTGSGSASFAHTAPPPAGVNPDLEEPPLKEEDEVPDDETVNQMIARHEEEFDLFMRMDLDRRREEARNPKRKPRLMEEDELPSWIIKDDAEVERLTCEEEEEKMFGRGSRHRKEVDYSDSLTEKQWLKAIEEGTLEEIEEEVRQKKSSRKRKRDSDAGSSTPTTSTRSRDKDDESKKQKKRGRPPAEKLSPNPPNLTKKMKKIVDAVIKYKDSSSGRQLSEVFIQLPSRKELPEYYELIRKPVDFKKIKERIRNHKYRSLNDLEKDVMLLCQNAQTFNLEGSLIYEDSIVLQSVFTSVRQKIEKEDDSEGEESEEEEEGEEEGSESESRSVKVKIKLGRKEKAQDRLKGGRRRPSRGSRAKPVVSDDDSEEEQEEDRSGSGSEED
SMARCA2, sequence (P51531 whole entry): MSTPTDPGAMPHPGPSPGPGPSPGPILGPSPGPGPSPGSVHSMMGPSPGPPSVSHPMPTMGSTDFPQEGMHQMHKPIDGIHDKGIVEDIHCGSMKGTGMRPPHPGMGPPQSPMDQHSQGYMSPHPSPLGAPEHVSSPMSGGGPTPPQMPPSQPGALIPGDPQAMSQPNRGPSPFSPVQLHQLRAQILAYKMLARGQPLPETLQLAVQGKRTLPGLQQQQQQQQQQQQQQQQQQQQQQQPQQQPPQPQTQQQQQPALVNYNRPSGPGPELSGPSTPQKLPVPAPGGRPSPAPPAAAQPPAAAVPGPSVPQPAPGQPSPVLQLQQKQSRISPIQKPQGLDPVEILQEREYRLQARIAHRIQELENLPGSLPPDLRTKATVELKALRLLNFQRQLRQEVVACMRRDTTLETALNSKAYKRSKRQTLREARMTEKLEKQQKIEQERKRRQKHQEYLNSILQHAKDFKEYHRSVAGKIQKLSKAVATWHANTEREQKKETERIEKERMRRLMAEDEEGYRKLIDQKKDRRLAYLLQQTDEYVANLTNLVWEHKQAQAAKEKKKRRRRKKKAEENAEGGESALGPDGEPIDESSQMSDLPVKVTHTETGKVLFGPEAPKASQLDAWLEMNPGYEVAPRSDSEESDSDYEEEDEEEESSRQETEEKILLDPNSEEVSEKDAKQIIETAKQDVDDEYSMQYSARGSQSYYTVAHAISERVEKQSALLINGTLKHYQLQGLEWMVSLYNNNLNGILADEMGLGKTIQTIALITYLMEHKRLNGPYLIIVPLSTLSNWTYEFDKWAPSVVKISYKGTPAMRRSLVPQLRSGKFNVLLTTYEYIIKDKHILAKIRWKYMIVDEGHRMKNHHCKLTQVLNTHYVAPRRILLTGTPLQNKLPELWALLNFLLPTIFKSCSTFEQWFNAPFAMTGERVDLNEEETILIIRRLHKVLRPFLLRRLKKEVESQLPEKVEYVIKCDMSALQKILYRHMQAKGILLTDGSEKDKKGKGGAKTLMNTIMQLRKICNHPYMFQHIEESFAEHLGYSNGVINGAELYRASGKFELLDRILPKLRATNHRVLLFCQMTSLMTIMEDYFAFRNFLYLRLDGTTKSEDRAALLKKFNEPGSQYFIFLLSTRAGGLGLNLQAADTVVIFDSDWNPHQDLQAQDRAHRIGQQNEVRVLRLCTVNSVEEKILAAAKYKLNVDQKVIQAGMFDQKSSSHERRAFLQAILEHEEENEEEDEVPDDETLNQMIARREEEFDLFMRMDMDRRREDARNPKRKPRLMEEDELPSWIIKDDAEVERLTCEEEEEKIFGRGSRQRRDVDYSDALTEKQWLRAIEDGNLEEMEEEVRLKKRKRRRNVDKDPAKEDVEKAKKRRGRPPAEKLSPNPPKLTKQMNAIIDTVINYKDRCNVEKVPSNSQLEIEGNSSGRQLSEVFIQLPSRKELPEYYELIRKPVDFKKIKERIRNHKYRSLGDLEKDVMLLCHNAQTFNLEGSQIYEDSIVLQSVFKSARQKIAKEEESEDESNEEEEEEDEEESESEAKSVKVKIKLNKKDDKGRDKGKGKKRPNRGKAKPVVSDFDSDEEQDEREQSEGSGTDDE

Compound | Dmax (SMARCA2) [%] | DC50 (SMARCA2) [nM] | Dmax (SMARCA4) [%] | DC50 (SMARCA4) [nM]
Cc1ncsc1-c1ccc(CNC(=O)[C@@H]2C[C@@H](O)CN2C(=O)[C@@H](NC(=O)[C@H]2CC[C@H](N3CCC(c4cnc(N5C6CCC5CN(c5cc(-c7ccccc7O)nnc5N)C6)nc4)CC3)CC2)C(C)(C)C)cc1 [I-355] | > 90 | 100 to 500 | 70 to 90 | 100 to 500
Cc1ncsc1-c1ccc(CNC(=O)[C@@H]2C[C@@H](O)CN2C(=O)[C@@H](NC(=O)[C@H]2C[C@H](N3CCC(c4cnc(N5C6CCC5CN(c5cc(-c7ccccc7O)nnc5N)C6)nc4)CC3)C2)C(C)(C)C)cc1 [I-356] | 70 to 90 | 100 to 500 | > 90 | < 100
Cc1ncsc1-c1ccc(CNC(=O)[C@@H]2C[C@@H](O)CN2C(=O)[C@@H](NC(=O)COCCCc2cnc(N3C4CCC3CN(c3cc(-c5ccccc5O)nnc3N)C4)nc2)C(C)(C)C)cc1 [I-357] | > 90 | 100 to 500 | > 90 | < 100
Cc1ncsc1-c1ccc(CNC(=O)[C@@H]2C[C@@H](O)CN2C(=O)[C@@H](NC(=O)[C@H]2C[C@@H](N3CCC(n4cc(-c5cc(-c6ccccc6O)nnc5N)cn4)CC3)C2)C(C)(C)C)cc1 [I-358] | 70 to 90 | 501 to 1000 | > 90 | 100 to 500
Cc1ncsc1-c1ccc(CNC(=O)[C@@H]2C[C@@H](O)CN2C(=O)[C@@H](NC(=O)[C@H]2C[C@H](N3CCC(n4cc(-c5cc(-c6ccccc6O)nnc5N)cn4)CC3)C2)C(C)(C)C)cc1 [I-359] | < 50 | > 1000 | < 50 | > 1000
Cc1ncsc1-c1ccc(CNC(=O)[C@@H]2C[C@@H](O)CN2C(=O)[C@@H](NC(=O)[C@H]2CC[C@@H](N3CCC(n4cc(-c5cc(-c6ccccc6O)nnc5N)cn4)CC3)CC2)C(C)(C)C)cc1 [I-360] | < 50 | > 1000 | 50 to 70 | > 1000
Cc1ncsc1-c1ccc(CNC(=O)[C@@H]2C[C@@H](O)CN2C(=O)[C@@H](NC(=O)[C@H]2CC[C@H](N3CCC(n4cc(-c5cc(-c6ccccc6O)nnc5N)cn4)CC3)CC2)C(C)(C)C)cc1 [I-361] | 50 to 70 | 501 to 1000 | < 50 | > 1000
Cc1ncsc1-c1ccc(CNC(=O)[C@@H]2C[C@@H](O)CN2C(=O)[C@@H](NC(=O)[C@H]2CC[C@@H](c3nccc(N4C5CCC4CN(c4cc(-c6ccccc6O)nnc4N)C5)n3)CC2)C(C)(C)C)cc1 [I-362] | 70 to 90 | 501 to 1000 | > 90 | < 100
Cc1ncsc1-c1ccc(CNC(=O)[C@@H]2C[C@@H](O)CN2C(=O)[C@@H](NC(=O)[C@H]2CC[C@H](c3nccc(N4C5CCC4CN(c4cc(-c6ccccc6O)nnc4N)C5)n3)CC2)C(C)(C)C)cc1 [I-363] | > 90 | 100 to 500 | > 90 | < 100
Cc1ncsc1-c1ccc(CNC(=O)[C@@H]2C[C@@H](O)CN2C(=O)[C@@H](NC(=O)C[C@H]2CC[C@H](c3nccc(N4C5CCC4CN(c4cc(-c6ccccc6O)nnc4N)C5)n3)CC2)C(C)(C)C)cc1 [I-364] | > 90 | 100 to 500 | > 90 | < 100
Cc1ncsc1-c1ccc(CNC(=O)[C@@H]2C[C@@H](O)CN2C(=O)[C@@H](NC(=O)C[C@H]2CC[C@@H](c3nccc(N4C5CCC4CN(c4cc(-c6ccccc6O)nnc4N)C5)n3)CC2)C(C)(C)C)cc1 [I-365] | > 90 | 100 to 500 | > 90 | < 100
Cc1ncsc1-c1ccc(CNC(=O)[C@@H]2C[C@@H](O)CN2C(=O)[C@@H](NC(=O)CCCN2CCC(c3cnc(N4C5CCC4CN(c4cc(-c6ccccc6O)nnc4N)C5)nc3)CC2)C(C)(C)C)cc1 [I-382] | < 50 | > 1000 | < 50 | > 1000
Cc1ncsc1-c1ccc(CNC(=O)[C@@H]2C[C@@H](O)CN2C(=O)[C@@H](NC(=O)CCCCN2CCC(c3cnc(N4C5CCC4CN(c4cc(-c6ccccc6O)nnc4N)C5)nc3)CC2)C(C)(C)C)cc1 [I-383] | < 50 | > 1000 | > 90 | > 1000
